The results in this text go back to patent publication US20230348442A1, “GALECTIN-3 INHIBITING 2-HYDROXYCYCLOALKANE-1-CARBAMOYL DERIVATIVES” (Idorsia Pharmaceuticals Ltd, priority 2020, published 2023).

Molecules are shown by their SMILES.

The target of this assay is human Gal-3 (hGal-3) (Homo sapiens (Human), UniProt P17931). Put plainly: competitive binding assay: binding of biotinylated hGal-3 to microplate-adsorbed asialofetuin (ASF), spectrophotometric. The conditions noted are these: Activity on hGal-3; mean values of several measurements. In a few lines: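 Compounds diluted in DMSO competed with biotinylated hGal-3 or hGal-1 (300-1000 ng/mL) for binding to plate-adsorbed asialofetuin for 3 h at 4° C. Bound galectin was detected with streptavidin-peroxidase (80 ng/mL, 1 h, 4° C) and ABTS substrate; IC50 reported as mean of several measurements.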
Sequence of human Gal-3 (hGal-3) (P17931 whole entry): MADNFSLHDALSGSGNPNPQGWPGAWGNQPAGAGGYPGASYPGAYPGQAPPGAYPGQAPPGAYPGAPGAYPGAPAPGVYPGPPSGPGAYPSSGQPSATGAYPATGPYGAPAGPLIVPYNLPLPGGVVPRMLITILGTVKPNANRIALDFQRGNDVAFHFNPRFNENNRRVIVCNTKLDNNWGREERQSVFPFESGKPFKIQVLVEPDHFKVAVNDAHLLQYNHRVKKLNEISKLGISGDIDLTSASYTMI
For `CO[C@@H]1[C@@H](n2cc(-c3cc(F)c(F)c(F)c3)nn2)[C@@H](O)[C@@H](CO)O[C@H]1C(=O)N(c1cc(Br)cc(C#N)c1)[C@@H]1CC[C@H]1O` [Example 2.1.5R, (2R,3R,4S,5R,6R)-N-(3-bromo-5-cyanophenyl)-5-hydroxy-N-((1R,2R)-2-hydroxycyclobutyl)-6-(hydroxymethyl)-3-methoxy-4-(4-(3,4,5-trifluorophenyl)-1H-1,2,3-triazol-1-yl)tetrahydro-2H-pyran-2-carboxamide], the IC50 – broadly, the midpoint of a concentration-inhibition curve – stood at 191 nM.
For `CO[C@@H]1[C@@H](n2cc(-c3cc(F)c(F)c(F)c3)nn2)[C@@H](O)[C@@H](CO)O[C@H]1C(=O)N(c1cccc(I)c1)[C@H]1CC[C@@H]1O` [Example 2.1.6, (2R,3R,4S,5R,6R)-5-hydroxy-N-((1S,2S)-2-hydroxycyclobutyl)-6-(hydroxymethyl)-N-(3-iodophenyl)-3-methoxy-4-(4-(3,4,5-trifluorophenyl)-1H-1,2,3-triazol-1-yl)tetrahydro-2H-pyran-2-carboxamide], the IC50 is 196 nM.
Compound `CO[C@@H]1[C@@H](n2cc(-c3cc(F)c(F)c(F)c3)nn2)[C@@H](O)[C@@H](CO)O[C@H]1C(=O)N(c1cccc(I)c1)[C@@H]1CC[C@H]1O` [Example 2.1.6R, (2R,3R,4S,5R,6R)-5-hydroxy-N-((1R,2R)-2-hydroxycyclobutyl)-6-(hydroxymethyl)-N-(3-iodophenyl)-3-methoxy-4-(4-(3,4,5-trifluorophenyl)-1H-1,2,3-triazol-1-yl)tetrahydro-2H-pyran-2-carboxamide] came in with an IC50 of 232 nM.
Then `CO[C@@H]1[C@@H](n2cc(-c3cc(F)c(F)c(F)c3)nn2)[C@@H](O)[C@@H](CO)O[C@H]1C(=O)N(c1cccc(Br)c1)[C@H]1CC[C@@H]1O` [Example 2.1.10, (2R,3R,4S,5R,6R)-N-(3-bromophenyl)-5-hydroxy-N-((1S,2S)-2-hydroxycyclobutyl)-6-(hydroxymethyl)-3-methoxy-4-(4-(3,4,5-trifluorophenyl)-1H-1,2,3-triazol-1-yl)tetrahydro-2H-pyran-2-carboxamide], with 108 nM; and `CO[C@@H]1[C@@H](n2cc(-c3cc(F)c(F)c(F)c3)nn2)[C@@H](O)[C@@H](CO)O[C@H]1C(=O)N(c1cccc(Br)c1)[C@@H]1CC[C@H]1O` [Example 2.1.10R, (2R,3R,4S,5R,6R)-N-(3-bromophenyl)-5-hydroxy-N-((1R,2R)-2-hydroxycyclobutyl)-6-(hydroxymethyl)-3-methoxy-4-(4-(3,4,5-trifluorophenyl)-1H-1,2,3-triazol-1-yl)tetrahydro-2H-pyran-2-carboxamide], with 203 nM.
For `CO[C@@H]1[C@@H](n2cc(-c3cc(F)c(F)c(F)c3)nn2)[C@@H](O)[C@@H](CO)O[C@H]1C(=O)N(c1cc(Br)cc(Br)c1)[C@H]1CC[C@@H]1O` [Example 2.1.11, (2R,3R,4S,5R,6R)-N-(3,5-dibromophenyl)-5-hydroxy-N-((1S,2S)-2-hydroxycyclobutyl)-6-(hydroxymethyl)-3-methoxy-4-(4-(3,4,5-trifluorophenyl)-1H-1,2,3-triazol-1-yl)tetrahydro-2H-pyran-2-carboxamide], the IC50 amounted to 72.5 nM.
The same measure for `CO[C@@H]1[C@@H](n2cc(-c3cc(F)c(F)c(F)c3)nn2)[C@@H](O)[C@@H](CO)O[C@H]1C(=O)N(c1cc(Br)cc(Br)c1)[C@@H]1CC[C@H]1O` [Example 2.1.11R, (2R,3R,4S,5R,6R)-N-(3,5-dibromophenyl)-5-hydroxy-N-((1R,2R)-2-hydroxycyclobutyl)-6-(hydroxymethyl)-3-methoxy-4-(4-(3,4,5-trifluorophenyl)-1H-1,2,3-triazol-1-yl)tetrahydro-2H-pyran-2-carboxamide]: 334 nM.
Then `CO[C@@H]1[C@@H](n2cc(-c3cc(F)c(F)c(F)c3)nn2)[C@@H](O)[C@@H](CO)O[C@H]1C(=O)N(c1cc(C)cc(Br)c1)[C@@H]1CC[C@H]1O` [Example 2.1.12R, (2R,3R,4S,5R,6R)-N-(3-bromo-5-methylphenyl)-5-hydroxy-N-((1R,2R)-2-hydroxycyclobutyl)-6-(hydroxymethyl)-3-methoxy-4-(4-(3,4,5-trifluorophenyl)-1H-1,2,3-triazol-1-yl)tetrahydro-2H-pyran-2-carboxamide], with 220 nM; and `COc1cc(-c2cn([C@H]3[C@@H](O)[C@@H](CO)O[C@@H](C(=O)N(c4cc(Cl)cc(Cl)c4)[C@H]4CC[C@@H]4O)[C@@H]3OC)nn2)cc(F)c1F` [Example 2.3.2, (2R,3R,4S,5R,6R)-N-(3,5-dichlorophenyl)-4-(4-(3,4-difluoro-5-methoxyphenyl)-1H-1,2,3-triazol-1-yl)-5-hydroxy-N-((1S,2S)-2-hydroxycyclobutyl)-6-(hydroxymethyl)-3-methoxytetrahydro-2H-pyran-2-carboxamide], with 67.8 nM.
Take `COc1cc(-c2cn([C@H]3[C@@H](O)[C@@H](CO)O[C@@H](C(=O)N(c4cc(Cl)cc(Cl)c4)[C@@H]4CC[C@H]4O)[C@@H]3OC)nn2)cc(F)c1F` [Example 2.3.2R, (2R,3R,4S,5R,6R)-N-(3,5-dichlorophenyl)-4-(4-(3,4-difluoro-5-methoxyphenyl)-1H-1,2,3-triazol-1-yl)-5-hydroxy-N-((1R,2R)-2-hydroxycyclobutyl)-6-(hydroxymethyl)-3-methoxytetrahydro-2H-pyran-2-carboxamide]: the IC50 was found to be 190 nM.
Regarding `COc1cc(-c2cn([C@H]3[C@@H](O)[C@@H](CO)O[C@@H](C(=O)N(c4cc(Br)cc(Br)c4)[C@H]4CC[C@@H]4O)[C@@H]3OC)nn2)cc(F)c1F` [Example 2.3.11, (2R,3R,4S,5R,6R)-N-(3,5-dibromophenyl)-4-(4-(3,4-difluoro-5-methoxyphenyl)-1H-1,2,3-triazol-1-yl)-5-hydroxy-N-((1S,2S)-2-hydroxycyclobutyl)-6-(hydroxymethyl)-3-methoxytetrahydro-2H-pyran-2-carboxamide], the IC50 stood at 113 nM.
As to `COc1cc(-c2cn([C@H]3[C@@H](O)[C@@H](CO)O[C@@H](C(=O)N(c4cc(Br)cc(Br)c4)[C@@H]4CC[C@H]4O)[C@@H]3OC)nn2)cc(F)c1F` [Example 2.3.11R, (2R,3R,4S,5R,6R)-N-(3,5-dibromophenyl)-4-(4-(3,4-difluoro-5-methoxyphenyl)-1H-1,2,3-triazol-1-yl)-5-hydroxy-N-((1R,2R)-2-hydroxycyclobutyl)-6-(hydroxymethyl)-3-methoxytetrahydro-2H-pyran-2-carboxamide], the IC50 came to 258 nM.
Then `COc1cc(-c2cn([C@H]3[C@@H](O)[C@@H](CO)O[C@@H](C(=O)N(c4cc(C)cc(Br)c4)[C@H]4CC[C@@H]4O)[C@@H]3OC)nn2)cc(F)c1F` [Example 2.3.12, (2R,3R,4S,5R,6R)-N-(3-bromo-5-methylphenyl)-4-(4-(3,4-difluoro-5-methoxyphenyl)-1H-1,2,3-triazol-1-yl)-5-hydroxy-N-((1S,2S)-2-hydroxycyclobutyl)-6-(hydroxymethyl)-3-methoxytetrahydro-2H-pyran-2-carboxamide], with 116 nM; and `COc1cc(-c2cn([C@H]3[C@@H](O)[C@@H](CO)O[C@@H](C(=O)N(c4cc(C)cc(Br)c4)[C@@H]4CC[C@H]4O)[C@@H]3OC)nn2)cc(F)c1F` [Example 2.3.12R, (2R,3R,4S,5R,6R)-N-(3-bromo-5-methylphenyl)-4-(4-(3,4-difluoro-5-methoxyphenyl)-1H-1,2,3-triazol-1-yl)-5-hydroxy-N-((1R,2R)-2-hydroxycyclobutyl)-6-(hydroxymethyl)-3-methoxytetrahydro-2H-pyran-2-carboxamide], with 311 nM.
`CO[C@@H]1[C@@H](n2cc(-c3cc(F)c(C)c(F)c3)nn2)[C@@H](O)[C@@H](CO)O[C@H]1C(=O)N(c1cc(Cl)cc(Cl)c1)[C@H]1CC[C@@H]1O` [Example 2.4.2, (2R,3R,4S,5R,6R)-N-(3,5-dichlorophenyl)-4-(4-(3,5-difluoro-4-methylphenyl)-1H-1,2,3-triazol-1-yl)-5-hydroxy-N-((1S,2S)-2-hydroxycyclobutyl)-6-(hydroxymethyl)-3-methoxytetrahydro-2H-pyran-2-carboxamide] had an IC50 of 38 nM.
Compound `CO[C@@H]1[C@@H](n2cc(-c3cc(F)c(C)c(F)c3)nn2)[C@@H](O)[C@@H](CO)O[C@H]1C(=O)N(c1cc(Cl)cc(Cl)c1)[C@@H]1CC[C@H]1O` [Example 2.4.2R, (2R,3R,4S,5R,6R)-N-(3,5-dichlorophenyl)-4-(4-(3,5-difluoro-4-methylphenyl)-1H-1,2,3-triazol-1-yl)-5-hydroxy-N-((1R,2R)-2-hydroxycyclobutyl)-6-(hydroxymethyl)-3-methoxytetrahydro-2H-pyran-2-carboxamide] yielded an IC50 of 134 nM.
`CO[C@@H]1[C@@H](n2cc(-c3cc(F)c(Cl)c(F)c3)nn2)[C@@H](O)[C@@H](CO)O[C@H]1C(=O)N(c1cc(Cl)cc(C#N)c1)[C@H]1CC[C@@H]1O` [Example 2.5.4, (2R,3R,4S,5R,6R)-4-(4-(4-chloro-3,5-difluorophenyl)-1H-1,2,3-triazol-1-yl)-N-(3-chloro-5-cyanophenyl)-5-hydroxy-N-((1S,2S)-2-hydroxycyclobutyl)-6-(hydroxymethyl)-3-methoxytetrahydro-2H-pyran-2-carboxamide] returned an IC50 of 71.4 nM.
As for `CO[C@@H]1[C@@H](n2cc(-c3cc(F)c(Cl)c(F)c3)nn2)[C@@H](O)[C@@H](CO)O[C@H]1C(=O)N(c1cc(Cl)cc(C#N)c1)[C@@H]1CC[C@H]1O` [Example 2.5.4R, (2R,3R,4S,5R,6R)-4-(4-(4-chloro-3,5-difluorophenyl)-1H-1,2,3-triazol-1-yl)-N-(3-chloro-5-cyanophenyl)-5-hydroxy-N-((1R,2R)-2-hydroxycyclobutyl)-6-(hydroxymethyl)-3-methoxytetrahydro-2H-pyran-2-carboxamide], the IC50 was determined as 193 nM.
Consider `CO[C@@H]1[C@@H](n2cc(-c3cc(F)c(Cl)c(F)c3)nn2)[C@@H](O)[C@@H](CO)O[C@H]1C(=O)N(c1cc(Br)cc(C#N)c1)[C@H]1CC[C@@H]1O` [Example 2.5.5, (2R,3R,4S,5R,6R)-N-(3-bromo-5-cyanophenyl)-4-(4-(4-chloro-3,5-difluorophenyl)-1H-1,2,3-triazol-1-yl)-5-hydroxy-N-((1S,2S)-2-hydroxycyclobutyl)-6-(hydroxymethyl)-3-methoxytetrahydro-2H-pyran-2-carboxamide], for which the concentration for half-maximal inhibition (IC50) worked out at 47 nM.
